Reference: patent publication US20020035097A1, “Method of preventing and treating chemotherapy-induced alopecia” (priority 1991, published 2002)

What was measured:
Format in all cases: in vivo, rat
[1] = tested on: VP-16-induced alopecia; experiment: VP-16 (Etoposide)-induced alopecia in young rats
Procedure: Twelve 7 day old rats were randomized in two groups. Group I was treated daily with buffer 0.1 ml s.c. for four days. The second Group was treated daily with Vitamin D3 50 μg s.c. over head for four days. After stopping the buffer or Vitamin D3 treatment, all rats received 1.5 mg/kg i.p. of VP-16 (Etoposide) daily for three days.
(§1) 1,25-Dihydroxyvitamin D3 was dissolved in absolute ethanol and applied topically with an applicator. Control animals were similarly treated with the same amount of ethanol. Animals were then kept individually separated for a period of three hours following which the treated area was carefully washed with soap and water and dried. Treatment was given daily beginning on day 5 after birth and ending on day 10.
(§2) All chemotherapies were given I.P. and started at 11 days of age. CTX, 35 mg/kg, was given for one day only. VP-16, 1.5 mg/kg, was given for three days. For CTX and ADM combination, CTX, 25 mg/kg was given for one day and ADM, 2.5 mg/kg, for three days. At these doses neither CTX nor ADM alone will produce alopecia. Alopecia was recorded on the tenth day from beginning chemotherapy.
(§3) A total of 4 experiments were carried out. In the first experiment, protection from Cytoxan-induced alopecia was examined. The experimental group was pretreated with 0.2 μg of 1,25-dihydroxyvitamin D3 in 0.15 ml of absolute ethanol applied topically over the head and neck and the control group received 0.15 ml of alcohol. All 10 rats in the control group became totally alopecic. […] The second experiment was carried out under similar conditions to examine protection from VP-16-induced alopecia. All 10 rats in the control group developed total body alopecia. […] The third experiment was designed to examine protection from alopecia induced by Cytoxan-Adriamycin combination. There were 11 rats in each group. Six rats in the control group developed alopecia over the head and neck and 5 rats developed total body alopecia. […] In the fourth experiment, protection from VP-16-induced alopecia was similarly examined except that the dose of 1,25-dihydroxyvitamin D3 was reduced to 0.1 μg in 0.1 ml absolute ethanol applied topically over the head area only. All 10 rats in the control group became completely alopecic.
as §1, with “RO 23-7553 (1,25 dihydroxy-16-ene-23-yne-cholecalciferol)” for “1,25-Dihydroxyvitamin D3”, “9” for “5”, “14.” for “10.”
On day 15 all animals received VP-16, 1.5 mg/kg i.p., for three days. Alopecia was recorded on day 25.
Thirteen rats were randomized in two groups. Experimental group, 7 rats; control group, 6 rats. The experimental group was pretreated with 1 μg of RO 23-7553 in 0.2 ml absolute ethanol applied topically over the neck and back and the control group received 0.2 ml of absolute ethanol. All six rats in the control group became totally alopecic over the neck and back.

[2] = tested on: Cytoxan/Adriamycin-induced alopecia; experiment: Cytoxan/Adriamycin combination-induced alopecia in young rats
Procedure: Eight 4-day old Sprague Dawley rats were randomized in two groups of 4 rats each. Group I, received EGF […] s.c. on the head daily for 7 days. Group II received buffer injections and served as controls. One day after stopping EGF or buffer injections all rats received Cytoxan 25 mg/kg i.p.×1 day and Adriamycin 2.5 mg/kg i.p.×3 days. […] (FIG. 5).
as §1
as §2, with “At these doses neither CTX nor ADM alone will produce alopecia.” left out
as §3, with “alcohol.” for “alcohol. All 10 rats in the control group became totally alopecic.”, “VP-16-induced” for “VP-16-induced alopecia. All 10 rats in the control group developed total body”, “group.” for “group. Six rats in the control group developed alopecia over the head and neck and 5 rats developed total body alopecia.”, “only.” for “only. All 10 rats in the control group became completely alopecic.”

[3] = tested on: ARA-C-induced alopecia; experiment: ARA-C-induced alopecia in young rats
Procedure: Sprague Dawley rats were purchased from Charles River Laboratories, Wilmington, Mass. Cytosar-U (ARA-C) was from the Upjohn Company, Kalamazoo, Mich. Receptor grade EGF from mouse submaxillary glands, human recombinant EGF, dimethyl sulfoxide (DMSO) and Vitamin D3 were purchased from Sigma Chemical Co., St. Louis, Mo. aFGF was purchased from AMGEN Corp., Thousand Oaks, Calif.
All rats from each experiment were treated with ARA-C 50 mg/kg intraperitoneally (i.p.) daily for 7 days. For subcutaneous (s.c.) injections, EGF and FGF were prepared in PBS 1% BSA. Alopecia was always recorded on day 12 of experiment, and scored as previously described (Hussein et al, Science, 249:1564-1566, 1990; Jimenez et al, FASEB J., 1991).
For topical treatment, murine EGF was prepared as follows: One vial of EGF (100 μg) was dissolved in 0.2 ml of PBS 1% BSA and 0.12 ml of this solution was added to 0.48 of DMSO. Three hours prior to ARA-C injection, 0.1 ml of the EGF-DMSO mixture was applied to each rat over a 1 cm^2 area between the shoulders using a rubber tip applicator. Rats were then kept individually separated for a period of three hours, following which the treated area was carefully washed with soap and water and dried. Treatment was continued for 7 days. Control animals were similarly treated using DMSO without EGF.
Two separate experiments were conducted to test the ability of murine EGF to protect from ARA-C-induced alopecia. In Experiment I, twenty-two 7-day old rats were randomized in two groups of eleven rats each. In addition to ARA-C, Group I received 2 μg of mouse EGF s.c. in the back between the two hind legs 3 hours prior to ARA-C injections daily for 7 days. Group II, received buffer solution similarly and served as control. Ten of eleven rats in Group II developed virtually total body alopecia and one rat developed more than 50% hair loss. In contrast, in Group I, 5 rats had no detectable hair loss and 6 rats had mild hair loss (Table I, Experiment I (FIG. 1)). In Experiment II, twelve 7-day old rats were randomized in two groups of 6 rats each. In addition to ARA-C, Group I received mouse EGF 1 μg s.c. daily for 7 days. Group II received buffer s.c. All 6 rats in Group II developed moderately severe to severe alopecia, whereas in Group I, one rat had no detectable hair loss and 5 rats developed only minimal hair loss (Table I, Experiment II).
For the next experiment, rHu-EGF was used. Twelve 7-day old rats were randomized in two groups of six rats each. In addition to ARA-C, Group I received rHu-EGF 2 μg s.c. in the flank area daily for 7 days. Group II received buffer s.c. All 6 rats in Group II developed total body alopecia, whereas in Group I none of the rats had total body alopecia, one rat had no detectable hair loss, four rats had mild alopecia and one rat had moderate alopecia (Table I, Experiment III, (FIG. 2)).
In the next experiment, twelve 7-day old rats were randomized in two groups of six rats each. Group I, in addition to ARA-C, received murine-EGF 10 μg in DMSO daily×7 days rubbed topically with a cotton tip applicator between the shoulder blades over an area of 1 cm^2. Group II received control solution topically. In Group II, all six rats developed complete body alopecia.
Fourteen 7-day old rats were randomized in two groups. All rats received ARA-C 50 mg/kg/day for seven days. In addition, Group I received aFGF 2 μg s.c. on back of head daily for seven days. Group II received buffer injections and served as controls. Alopecia was recorded on day 12 of experiment. All rats in Group II developed complete body alopecia.

[4] = tested on: Cytoxan-induced alopecia; experiment: Cytoxan-induced alopecia in young rats; settings: 50 μg daily i.p. or s.c. for 4 days prior to chemotherapy; Cytoxan 32.5 mg/kg single injection; 7 experiments, 89 animals
[5] = 2μ s.c. on the head daily for 7 days, then Cytoxan 25 mg/kg i.p. × 1 day and Adriamycin 2.5 mg/kg i.p. × 3 days, 4 rats
[6] = Experiment I, 2 μg s.c. daily × 7 days, 3 hours prior to ARA-C 50 mg/kg i.p. × 7 days, 11 rats, day 12
[7] = Experiment II, 1 μg s.c. daily × 7 days with ARA-C 50 mg/kg i.p. × 7 days, 6 rats, day 12
[8] = Experiment III, 2 μg s.c. in flank daily × 7 days with ARA-C 50 mg/kg i.p. × 7 days, 6 rats, day 12
[9] = Experiment III, 2 μg s.c. in flank daily × 7 days with ARA-C 50 mg/kg i.p. × 7 days, 6 rats, day 12, listed as rHu-ECF

## C=C1/C(=C\C=C2/CCC[C@]3(C)C([C@H](C)CC#CC(C)(C)O)=CC[C@@H]23)C[C@@H](O)C[C@@H]1O [RO 23-7553, 1,25 dihydroxy-16-ene-23-yne-cholecalciferol]
[1]; 1 μg in 0.2 ml absolute ethanol topically over neck and back, day 9 to 14 after birth, VP-16 1.5 mg/kg i.p. for three days from day 15, recorded day 25, 7 rats
  Protection from VP-16-induced alopecia: all animals in the experimental group were protected

## C=C1CC[C@H](O)C/C1=C/C=C1\CCC[C@]2(C)[C@@H]([C@H](C)CCCC(C)C)CC[C@@H]12 [Vitamin D3]
[2]; 50 μg daily i.p. or s.c. for 4 days prior to chemotherapy, Adriamycin 2.5 mg/kg i.p. daily for 3 days plus Cytoxan 25 mg/kg single injection, 6 experiments, 77 animals
  Protection from alopecia: excellent protection and Yes*
[3]; 50 μg daily i.p. or s.c. for 4 days prior to chemotherapy, ARA-C 50 mg/kg i.p. daily for 7 days, 1 experiment, 8 animals
  Protection from alopecia: excellent protection and Yes*
[4]
  Protection from alopecia: excellent protection and Yes*
[1]; 50 μg daily i.p. or s.c. for 4 days prior to chemotherapy, VP-16 1.5 mg/kg i.p. daily for 3 days, 2 experiments, 22 animals
  Protection from alopecia: excellent protection and Yes*
[1]; 50 μg s.c. over head daily for four days, then VP-16 1.5 mg/kg i.p. daily for three days
  Protection from VP-16-induced alopecia: protected

## Murine EGF: Receptor grade EGF from mouse submaxillary glands (Sigma) (NSYPGCPSSYDGYCLNGGVCMHIESLDSYTCNCVIGYSGDRCQTRDLRWWELR; Epidermal growth factor; UniProt P01132 977-1029, looked up)
[2]; [5]
  Number of rats with mild alopecia over head and neck: one
  Number of rats with minimal alopecia over head and neck: one
  Number of rats with no detectable alopecia over head and neck: two
[3]; 10 μg in DMSO daily × 7 days topically between shoulder blades over 1 cm^2, ARA-C 50 mg/kg × 7 days, 6 rats
  Alopecia after topical treatment: all rats developed complete body alopecia except where the EGF was applied topically
[3]; [6]
  Number of rats with alopecia 0 (no detectable alopecia): 5
  Number of rats with alopecia 1+ (mild, less than 50% hair loss): 6
  Number of rats with alopecia 2+ (moderately severe, more than 50% hair loss): 0
  Number of rats with alopecia 3+ (total or virtually total, >90% hair loss): 0
[3]; [7]
  Number of rats with alopecia 0 (no detectable alopecia): 1
  Number of rats with alopecia 1+ (mild, less than 50% hair loss): 5
  Number of rats with alopecia 2+ (moderately severe, more than 50% hair loss): 0
  Number of rats with alopecia 3+ (total or virtually total, >90% hair loss): 0
[3]; Experiment II, 1 μg s.c. daily × 7 days with ARA-C 50 mg/kg i.p. × 7 days, 6 rats, day 12, listed as mouse EGF
  Number of rats with alopecia 0 (no detectable alopecia): one

## aFGF: aFGF, a fibroblast growth factor, purchased from AMGEN Corp.
[3]; 2 μg s.c. on back of head daily for seven days, ARA-C 50 mg/kg/day for seven days, day 12
  Protection from ARA-C-induced alopecia: protected locally at the site of injection

## rHu-EGF: human recombinant EGF (Sigma)
[3]; [8]
  Number of rats with alopecia 0 (no detectable alopecia): one
  Number of rats with alopecia 1+ (mild, less than 50% hair loss): four
  Number of rats with alopecia 2+ (moderately severe, more than 50% hair loss): one
  Number of rats with alopecia 3+ (total or virtually total, >90% hair loss): none
[3]; [9]
  Number of rats with alopecia 0 (no detectable alopecia): 1
  Number of rats with alopecia 1+ (mild, less than 50% hair loss): 4
  Number of rats with alopecia 2+ (moderately severe, more than 50% hair loss): 1
  Number of rats with alopecia 3+ (total or virtually total, >90% hair loss): 0
